The values that follow come from publication PMC10062662, “Quantitative determination of lurbinectedin, its unbound fraction and its metabolites in human plasma utilizing ultra-performance LC–MS/MS” (PLOS ONE, 2023).

Data set [1] in a line: Stability in human K3-EDTA plasma under different test conditions. The format is in vitro ADME. As to the method:
Likewise, a wide range of long-term stability tests reflecting the sort of real-world storage issues that can occur in hospital-based clinical studies (e.g., short-term storage at -20°C before transfer to -80°C, availability of -60°C but not -80°C), was evaluated to ensure plasma samples are analyzed before degradation can occur. Therefore, the following plasma stability tests were performed: room temperature, freeze thaw (one cycle consisted of 2 hours at room temperature followed by freezing for at least 12 hours at -80°C ± 10°C) and long-term (at -20°C ± 5°C, -60°C ± 10°C and -80°C ± 10°C). For each stability test, two concentrations (LQC and HQC) and six replicates per level were analyzed. For acceptance criteria, the precision (%CV) was ≤15% and the bias when compared with the nominal concentration was ±15%. […]

Details of data set [2]: method as in PMID 35042701. To be noted: NHPs; cited from earlier work.
On the set-up of data set [3]: method as in PMID 35042701. Particulars: patients, radio-labeled lurbinectedin mass balance study; cited from earlier work.
The nature of data set [4]: Chemical stability of M4 reference standard on isolation. The format is physicochemical. To be noted: column chromatography on silica gel or reversed-phase chromatography. As for the experimental part: The chemical synthesis of the reference standard for M4 was not feasible. […] Therefore, M4 and M4-d4 solutions were biosynthetically obtained following the incubation of lurbinectedin and PM040038, respectively, in liver microsomes according to a three-step method described elsewhere.

Data set [5] is classed as in vitro ADME. To be noted: human, 120 min, 10 ng/mL. As for the experimental part: To ensure correct sample collection during the clinical trial procedures, whole-blood (using K3-EDTA as anticoagulant) stability was studied by spiking the blood (lurbinectedin at 20 ng/mL and M4 and M6 at 10 ng/mL). Aliquots of the whole blood were then centrifuged at 4°C for 0, 30, 60, 90 and 120 minutes post equilibration (15 minutes at 37°C) to produce plasma, which was then frozen prior to analysis. This was performed at room temperature (and in an ice bath for lurbinectedin). The derived plasma samples were analyzed in triplicate, and the criterion for acceptance was defined as having a response within ±15% of the zero-minute sample.

The nature of data set [6]: Stability of stock and working solutions at -20°C. The format is physicochemical. To be noted: 1 mg/mL in DMSO, -20°C ±5°C. As to the method: The stability of stock and working solutions, as well the stability of IS stock solution, following storage at -20°C ±5°C were investigated by concordance verification by comparing the stored solution against a freshly prepared one.

[7] abbreviates: 5 freeze-thaw cycles, nom. conc. 1.5 ng/mL.
Where [8] appears, read: 5 freeze-thaw cycles, nom. conc. 16 ng/mL.
[9] abbreviates: -80°C ±10°C, 197 days, nom. conc. 1.5 ng/mL.
The mark [10] stands for this setting: -80°C ±10°C, 197 days, nom. conc. 16 ng/mL.
The mark [11] stands for this setting: Ambient, 6 hours, nom. conc. 1.5 ng/mL.
The mark [12] stands for this setting: Ambient, 6 hours, nom. conc. 16 ng/mL.
Setting [13] is: -80°C ±10°C, 237 days, nom. conc. 1.5 ng/mL.
Where [14] appears, read: -80°C ±10°C, 237 days, nom. conc. 16 ng/mL.
Setting [15] is: Ambient, 21.8 hours, nom. conc. 1.5 ng/mL.
Setting [16] is: Ambient, 21.8 hours, nom. conc. 16 ng/mL.

Read-outs that look alike come from different tables or passages of the source. Bounds are passed on as bounds.

In the case of `COc1ccc2[nH]c3c(c2c1)CCN[C@]31CS[C@@H]2c3c(OC(C)=O)c(C)c(O)c(O)c3[C@H](COC1=O)N1[C@@H]2[C@H]2c3c(cc(C)c(OC)c3O)C[C@@H]([C@@H]1O)N2C` [M4, 1′,3′-dihydroxy-lurbinectedin], the Bias in data set [1] (setting [7]) is given as 5%; in data set [1] (setting [8]), -3%; in data set [1] (setting [9]), 3%; in data set [1] (setting [10]), -1%; in data set [1] (setting [11]), -7%; in data set [1] (setting [12]), -14%. The Measured conc. in data set [1] (setting [7]) worked out at 1.58 ng/mL; in data set [1] (setting [8]), 15.6 ng/mL; in data set [1] (setting [9]), 1.54 ng/mL; in data set [1] (setting [10]) it was 15.8 ng/mL; in data set [1] (setting [11]) it was 1.40 ng/mL; in data set [1] (setting [12]), 13.7 ng/mL. The “circulating metabolite in plasma, % compared with parent compound” value is recorded as 0.9% in data set [2] and 14.3% in data set [3]. In data set [4], the “stability on isolation by conventional methods” value is “too unstable to be isolated”. The “difference in concentration from time zero to 120 minutes” value in data set [5] is reported as -3%.
For the molecule `COc1ccc2[nH]c3c(c2c1)CCN[C@]31CS[C@@H]2c3c(OC(C)=O)c(C)c4c(c3[C@H](COC1=O)N1[C@@H]2[C@@H]2N[C@@H](Cc3cc(C)c(OC)c(O)c32)[C@@H]1O)OCO4` [M6, N-desmethyl-lurbinectedin], the Bias in data set [1] (setting [7]) stood at 13%; in data set [1] (setting [8]), 14%; in data set [1] (setting [13]), 13%; in data set [1] (setting [14]), 15%; in data set [1] (setting [15]) it was 5%; in data set [1] (setting [16]), 5%. Moreover, the Measured conc. is recorded as 1.69 ng/mL in data set [1] (setting [7]); 18.2 ng/mL in data set [1] (setting [8]); 1.70 ng/mL in data set [1] (setting [13]); 18.4 ng/mL in data set [1] (setting [14]); 1.58 ng/mL in data set [1] (setting [15]); 16.8 ng/mL in data set [1] (setting [16]). For the same molecule, the entries for the “circulating metabolite in plasma, % compared with parent compound” value in data set [2] and in data set [3] were 0.4% and 10.4%, respectively. In addition, the “stability of stock solution in DMSO” value in data set [6] is on record as ≥ 28 days. Further, the “difference in concentration from time zero to 120 minutes” value in data set [5] is reported as -8%.
Turning to `[2H]C1([2H])N[C@]2(CS[C@@H]3c4c(OC(C)=O)c(C)c5c(c4[C@H](COC2=O)N2[C@@H]3[C@H]3c4c(cc(C)c(OC)c4O)C[C@@H]([C@@H]2O)N3C)OCO5)c2[nH]c3ccc(OC)cc3c2C1([2H])[2H]` [PM040038], in data set [6], the “stability of stock solution in DMSO” value is recorded as ≥ 36 days.
For `[2H]C1([2H])N[C@]2(CS[C@@H]3c4c(OC(C)=O)c(C)c5c(c4[C@H](COC2=O)N2[C@@H]3[C@@H]3N[C@@H](Cc4cc(C)c(OC)c(O)c43)[C@@H]2O)OCO5)c2[nH]c3ccc(OC)cc3c2C1([2H])[2H]` [PM190539, N-Desmethyl-lurbinectedin-d4], the “stability of stock solution in DMSO” value in data set [6] is ≥ 28 days.
